Key:
[1] = test system: hepatic disorder induced by carbon tetrachloride; assay: Effect on hepatic disorder induced by carbon tetrachloride in rats (Example 5; serum GOT, GPT, bilirubin); format: in vivo, SLC-Wistar male rats; conditions: CCl4 0.5 ml/kg i.p., blood 24 hours after CCl4; for Bilirubin in serum: normal 0.12 ± 0.02, no combination compound 0.26 ± 0.02; for GPT in serum: normal 32 ± 3, no combination compound 10606 ± 1952; for GOT in serum: normal 73 ± 5, no combination compound 18228 ± 2032
Method: Five rats were used in each test group. The sample compound (i.e., the compound prepared in Example 1) was suspended at a concentration of 40 mg/ml in a 0.1% aqueous solution of Tween-80. Alpha-tocopherol was dissolved at a concentration of 40 mg/ml in an olive oil. This solution was administered orally at a dose of 200 mg/kg each for 2 days. Glutathione was dissolved at a concentration of 100 mg/ml in a 0.1% aqueous solution of Tween-80. This solution was orally administered at a dose of 500 mg/kg for 2 days. Carbon tetrachloride was intraperitoneally administered as a 10% olive oil solution at a dose of 5 ml/kg (0.5 ml/kg in terms of CCl4) one hour after the final administration of the sample compound. Blood samples were collected from the carotid artery under pentobarbital anesthesia, 24 hours after the administration of carbon tetrachloride. […] The determination of GOT and GPT in serum was carried out according to a UV method and the determination of bilirubin was carried out according to a diazo method.

in vivo = conditions: rat, oral, rats 5 week age, observed for 3 days
[2] = test system: liver disorder induced by D-galactosamine; assay: Effect on liver disorder induced by D-galactosamine in rats (serum GOT, GPT, bilirubin); format: in vivo, Wistar-Imamichi male rats; conditions: D-galactosamine 400 mg/kg i.p., 200 mg/kg orally for 2 days, blood 24 hours after D-galactosamine; for Bilirubin in serum: normal 0.12 ± 0.02, no combination compound 0.43 ± 0.06; for GPT in serum: normal 15 ± 1, no combination compound 2195 ± 460; for GOT in serum: normal 97 ± 3, no combination compound 6170 ± 1507
Method: Effect of 3,5-diethoxycarbonyl-4-[2'-(5',6'-dihydro-p-dioxinyl)]-2,6-dimethyl-1,4-dihydropyridine (compound of Example 1) on liver disorder induced by D-galactosamine.
The effect of the sample compound to be tested on hepatic disorder was evaluated by determining the levels of GOT, GPT and bilirubin, which are known as an indicator of hepatic disorder, in serum, after administering D-galactosamine hydrochloride and the sample compound to Wistar-Imamichi male rats (8 week age and body weight of 260 to 280 g) as follows.
Five rats were used in each test group. The sample compound (i.e., the compound prepared in Example 1) was suspended at a concentration of 40 mg/ml in a 0.1% aqueous solution of Tween-80 (Trademark of surfactant available from Atlas Chemical Corp.). Alpha-tocopherol was dissolved at a concentration of 40 mg/ml in olive oil. This solution was administered orally at a dose of 200 mg/kg each for 2 days (25 and 1 hours before the administration of D-galactosamine). D-galactosamine was dissolved at a concentration of 100 mg/ml in a Physiological saline and this solution was administered intraperitoneally at a single dose of 400 mg/kg one hour after the final administration of the sample compound.
Blood samples were collected from the carotid artery under pentobarbital anesthesia, 24 hours after the administration of D-galactosamine. The rats were fasted for 18 to 20 hours before collecting of blood sample.
(§1) The determination of GOT and GPT in serum was carried out according to a UV method and the determination of bilirubin was carried out according to a diazo method.

[3] = test system: hepatic disorder induced by carbon tetrachloride; assay: Effect on hepatic disorder induced by carbon tetrachloride in rats (Examples 6 and 7; serum GOT, GPT, bilirubin); format: in vivo, SLC-Wistar male rats; conditions: CCl4 0.5 ml/kg i.p., 200 mg/kg orally for 2 days, blood 24 hours after CCl4; for Bilirubin in serum: normal 0.10 ± 0.00, no combination compound 0.24 ± 0.02; for GPT in serum: normal 46 ± 6, no combination compound 10266 ± 818; for GOT in serum: normal 97 ± 10, no combination compound 16650 ± 1636
Method: The effects of the sample compounds on hepatic disorders were evaluated by determining the levels of GOT, GPT, and bilirubin […] in serum, after administering carbon tetrachloride and the sample compound to SLC-Wistar male rats (10 week age and body weight of 240 to 270 g) as follows.
Five rats were used in each test group. The sample compounds (i.e., the compounds prepared in Examples 2 and 3) were suspended at a concentration of 40 mg/ml in a 0.1% aqueous solution of Tween-80. Alpha-tocopherol was dissolved at a concentration of 40 mg/ml in olive oil. This solution was administered orally at a dose of 200 mg/kg each for 2 days. Glutathione was dissolved at a concentration of 100 mg/ml in a 0.1% aqueous solution of Tween-80. This solution was orally administered at a dose of 500 mg/kg for 2 days. Carbon tetrachloride was intraperitoneally administered as a 10% olive oil solution at a dose of 5 ml/kg (0.5 ml/kg in terms of CCl4) one hour after the final administration of each sample compound.
Blood sampels were collected from the carotid artery under pentobarbital anesthesia, 24 hours after the administration of carbon tetrachloride. The rats were fasted for 18 to 20 hours before collecting of a blood sample.
as §1

[4] = glutathione 500 mg/kg orally for 2 days

Compound	Bilirubin in serum ([1]; 200 mg/kg orally for 2 days) [mg/dL]	GPT in serum ([1]; 200 mg/kg orally for 2 days) [KU]	GOT in serum ([1]; 200 mg/kg orally for 2 days) [KU]	LD50 at 72 h (in vivo) [mg/kg]	Bilirubin in serum [2] [mg/dL]	GPT in serum [2] [KU]	GOT in serum [2] [KU]	Bilirubin in serum [3] [mg/dL]	GPT in serum [3] [KU]	GOT in serum [3] [KU]	Bilirubin in serum [1, 4] [mg/dL]	GPT in serum [1, 4] [KU]	GOT in serum [1, 4] [KU]
CCOC(=O)C1=C(C)NC(C)=C(C(=O)OCC)C1C1=COCCO1 [Example 1, 3,5-diethoxycarbonyl-4-[2'-(5',6'-dihydro-p-dioxinyl)]-2,6-dimethyl-1,4-dihydropyridine]	0.14 ± 0.02	1396 ± 290	1800 ± 321	~2000	0.30 ± 0.06	862 ± 373	2194 ± 777	–	–	–	–	–	–
CCCOC(=O)C1=C(C)NC(C)=C(C(=O)OCCC)C1C1=COCCO1 [Example 2, 3,5-di-n-propyloxycarbonyl-4-[2'-(5',6'-dihydro-p-dioxynyl)]-2,6-dimethyl-1,4-dihydropyridine]	–	–	–	≥ 2000	–	–	–	0.13 ± 0.03	1443 ± 228	2456 ± 734	–	–	–
COC(=O)C1=C(C)NC(C)=C(C(=O)OC)C1C1=COCCO1 [Example 3, 3,5-dimethoxycarbonyl-4-2'-(5',6'-dihydro-p-dioxinyl)-2,6-dimethyl-1,4-dihydropyridine]	–	–	–	–	–	–	–	0.14 ± 0.02	680 ± 107	901 ± 127	–	–	–
Cc1c(C)c2c(c(C)c1O)CCC(C)(CCCC(C)CCCC(C)CCCC(C)C)O2 (stereo not drawn) [alpha-tocopherol, reference compound]	0.18 ± 0.02	5764 ± 1564	5662 ± 793	–	0.26 ± 0.02	1043 ± 189	3065 ± 440	0.26 ± 0.04	9106 ± 591	14558 ± 1049	–	–	–
N[C@@H](CCC(=O)N[C@@H](CS)C(=O)NCC(=O)O)C(=O)O [glutathione]	–	–	–	–	–	–	–	–	–	–	0.22 ± 0.02	7722 ± 1170	11272 ± 1904
